Measured values as given in patent US20180221384A1, “COMPOSITIONS OF MIDAZOLAM FOR BUCCAL ADMINISTRATION IN THE TREATMENT OF SEIZURES TO OBTAIN RAPID ONSET OF ACTION” (SWIPP AB, priority 2015, published 2018).
Counter-ions that a name gives are not always drawn. Like-named read-outs stand apart in the source and are kept apart here.

Assays:
[1] = Pilot in vivo study: midazolam film preparation applied on the oro-mucosal membrane, plasma levels by LC-MS/MS; settings: for Corresponding plasma levels in children weighing 20 kg: at least; for Side-effects: healthy volunteers
Protocol: Film preparations weighing approximately 0.07 g (1×2 cm) containing 2 mg midazolam hydrochloride were applied on the oro-mucosal membrane in healthy volunteers (body weight 90 kg). Venous blood samples were drawn 6, 12 and 18 minutes after application.
Film preparations weighing approximately 0.07 g (1×2 cm) containing 1 mg midazolam hydrochloride were applied on the oro-mucosal membrane in healthy volunteers (body weight 90 kg). Venous blood samples were drawn 6, 12 and 18 minutes after application.

[2] = cited from earlier work
[3] = cited from earlier work; remark: listed apart in the source
[4] = midazolam solution 5 mg buccal, healthy volunteers (Schwagmeier et al. 1998)
[5] = human, plasma, other: applied on the oro-mucosal membrane, 1 mg

Row | Structure (SMILES) | Blood levels ([1]; buccal film or wafer, dose 2 mg, adult volunteers (summary in description)) [ng/mL] | Plasma level ([1]; buccal film, dose 1 mg midazolam, adult 90 kg (summary in description)) | Plasma level (in words) ([1]; buccal film, dose 1 mg, adults average body weight 90 kg) | Time to anticonvulsive effect ([2]; adults administered 10-20 mg (Nakken et al. 2011)) [min] | Time to anticonvulsive effect ([2]; children, buccal dose 0.2 mg/kg (Talukbar et al. 2009)) [min] | Time to plasma concentration of 5 ng/mL ([3]; approx. 10 mg midazolam, adult volunteers, most of the subjects (Scott et al. 1998)) [min] | Blood levels [3, 4] [ng/mL] | Time to blood levels of 5-10 ng/mL [3, 4] [min] | Corresponding plasma levels in children weighing 20 kg ([1]; extrapolated from adults given 1 mg film) [ng/mL] | Corresponding plasma levels in children weighing 20 kg ([1]; extrapolated from adults given 2 mg film) [ng/mL] | Side-effects ([1]; film containing 1 mg midazolam hydrochloride) | Side-effects ([1]; film containing 2 mg midazolam hydrochloride) | Average plasma levels ([1]; film containing 2 mg midazolam hydrochloride, oro-mucosal, healthy volunteers 90 kg) [ng/mL] | concentration at 6 min [1, 5] [ng/mL] | concentration at 12 min [1, 5] [ng/mL]
1 | Cc1ncc2n1-c1ccc(Cl)cc1C(c1ccccc1F)=NC2 [midazolam, Midazolam] | 5 to 10 | about 5 ng/mL | therapeutic levels | ≤ 5 | ≤ 5 | 5 to 10 | 5 to 10 | 3 to 6 | – | – | – | – | – | – | –
2 | Cc1ncc2n1-c1ccc(Cl)cc1C(c1ccccc1F)=NC2 [midazolam hydrochloride, Midazolam hydrochloride] | – | – | – | – | – | – | – | – | 15 to 20 | 15 to 50 | No side-effects were observed | No side-effects were observed | 5 | 1 | 4.6
